The structures appear in SMILES notation. A value given as a limit tells only on which side of the number the result lay.

The first test has as its system HCT116. As to the kind of experiment: In Vitro cytotoxicity measured by the cell colony formation assay. In kind it is cell-based, human. As to conditions: HCT116 colony formation; 72 h with drug, colonies counted after 7 days; ID50 = concentration producing 50% inhibition of colony formation; read-out: IN VITRO ID 50 HCT116. The method, boiled down: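 Four hundred cells per dish in McCoy's 5a medium with 10% FBS were allowed to attach for 5 h at 37 °C. They were then exposed to compound for 72 h at 37 °C, added as a 10× stock made fresh in medium. After HBSS rinsing and refeeding, colonies were counted after 7 days.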
`CC=CC(=O)OC1C(=O)C2(C)C(O)CC3OCC3(OC(C)=O)C2C(OC(=O)c2ccccc2)C2(O)CC(OC(=O)C(O)C(NC(=O)OC(C)(C)C)c3ccco3)C(C)=C1C2(C)C` (stereo not drawn) [Compound 2379]: the IC50 is less than 1 nM.

Still in this test, the particulars now being: Homo sapiens, HCT-116; read-out: IN VITRO ID 50 HCT116.
Regarding `CC(=O)O[C@@]12CO[C@@H]1C[C@H](O)[C@@]1(C)C(=O)[C@H](OC(=O)C3CC3)C3=C(C)[C@@H](OC(=O)[C@H](O)[C@H](C=C(C)C)NC(=O)c4ccccc4)C[C@@](O)([C@@H](OC(=O)c4ccccc4)[C@H]21)C3(C)C` [Compound 0890], the IC50 was less than 1 nM.
On the same count and under the same terms, then `CC(=O)O[C@@]12CO[C@@H]1C[C@H](O)[C@@]1(C)C(=O)[C@H](OC(=O)C3CC3)C3=C(C)[C@@H](OC(=O)[C@H](O)[C@@H](NC(=O)OC(C)(C)C)c4ccccn4)C[C@@](O)([C@@H](OC(=O)c4ccccc4)[C@H]21)C3(C)C` [Compound 2802], with less than 1 nM; and `C/C=C/C(=O)N[C@@H](c1ccco1)[C@@H](O)C(=O)O[C@H]1C[C@@]2(O)[C@@H](OC(=O)c3ccccc3)[C@@H]3[C@]4(OC(C)=O)CO[C@@H]4C[C@H](O)[C@@]3(C)C(=O)[C@H](OC(=O)CC)C(=C1C)C2(C)C` [Compound 3982], with less than 1 nM; and `CCCC(=O)O[C@H]1C(=O)[C@@]2(C)[C@H]([C@H](OC(=O)c3ccccc3)[C@]3(O)C[C@H](OC(=O)[C@H](O)[C@@H](NC(=O)c4ccco4)c4ccco4)C(C)=C1C3(C)C)[C@]1(OC(C)=O)CO[C@@H]1C[C@@H]2O` [Compound 3686], with less than 1 nM.
Same read-out and setting: next, `CC(=O)OC12COC1CC(O)C1(C)C(=O)C(OC(=O)C(C)C)C3=C(C)C(OC(=O)C(O)C(NC(=O)OC(C)(C)C)c4ccsc4)CC(O)(C(OC(=O)c4ccccc4)C21)C3(C)C` (stereo not drawn) [Compound 2291]: less than 1 nM; `CCC(=O)O[C@H]1C(=O)[C@@]2(C)[C@H]([C@H](OC(=O)c3ccccc3)[C@]3(O)C[C@H](OC(=O)[C@H](O)[C@@H](NC(=O)OC(C)(C)C)C4CC4)C(C)=C1C3(C)C)[C@]1(OC(C)=O)CO[C@@H]1C[C@@H]2O` [Compound 0578]: less than 1 nM.
For the compound `CC(=O)O[C@@]12CO[C@@H]1C[C@H](O)[C@@]1(C)C(=O)[C@H](OC(=O)C3CC3)C3=C(C)[C@@H](OC(=O)[C@H](O)[C@@H](NC(=O)c4ccco4)c4ccco4)C[C@@](O)([C@@H](OC(=O)c4ccccc4)[C@H]21)C3(C)C` [Compound 3866], the IC50 was less than 1 nM.
For `CCOC(=O)N[C@@H](c1ccco1)[C@@H](O)C(=O)O[C@H]1C[C@@]2(O)[C@@H](OC(=O)c3ccccc3)[C@@H]3[C@]4(OC(C)=O)CO[C@@H]4C[C@H](O)[C@@]3(C)C(=O)[C@H](OC(=O)CC)C(=C1C)C2(C)C` [Compound 3535], the IC50 is less than 1 nM.
For the compound `CCC(=O)O[C@H]1C(=O)[C@@]2(C)[C@H]([C@H](OC(=O)c3ccccc3)[C@]3(O)C[C@H](OC(=O)[C@H](O)[C@@H](NC(=O)OC(C)(C)C)c4ccc([N+](=O)[O-])cc4)C(C)=C1C3(C)C)[C@]1(OC(C)=O)CO[C@@H]1C[C@@H]2O` [Compound 0602], the IC50 was less than 1 nM.
For the compound `CC(=O)OC12COC1CC(O)C1(C)C(=O)C(OC(=O)c3ccco3)C3=C(C)C(OC(=O)C(O)C(NC(=O)OC(C)(C)C)c4ccccc4)CC(O)(C(OC(=O)c4ccccc4)C21)C3(C)C` (stereo not drawn) [Compound 2212], the IC50 was less than 10 nM.
Still for that read-out and setting: next, `CC(=O)O[C@@]12CO[C@@H]1C[C@H](O)[C@@]1(C)C(=O)[C@H](OC(=O)C3CC3)C3=C(C)[C@@H](OC(=O)[C@H](O)[C@@H](NC(=O)c4ccco4)c4cccs4)C[C@@](O)([C@@H](OC(=O)c4ccccc4)[C@H]21)C3(C)C` [Compound 3297]: less than 1 nM; `CCC(=O)OC1C(=O)C2(C)C(O)CC3OCC3(OC(C)=O)C2C(OC(=O)c2ccccc2)C2(O)CC(OC(=O)C(O)C(NC(=O)OC(C)(C)CC)c3ccco3)C(C)=C1C2(C)C` (stereo not drawn) [Compound 6522]: less than 1 nM.
The same measure, in the same setting: next, `CC(=O)O[C@@]12CO[C@@H]1C[C@H](O)[C@@]1(C)C(=O)[C@H](OC(=O)C=C(C)C)C3=C(C)[C@@H](OC(=O)[C@H](O)[C@@H](NC(=O)OC(C)(C)C)c4ccsc4)C[C@@](O)([C@@H](OC(=O)c4ccccc4)[C@H]21)C3(C)C` [Compound 2511]: less than 1 nM; `CC(=O)O[C@@]12CO[C@@H]1C[C@H](O)[C@@]1(C)C(=O)[C@H](OC(=O)C=C(C)C)C3=C(C)[C@@H](OC(=O)[C@H](O)[C@@H](NC(=O)OC(C)(C)C)c4ccco4)C[C@@](O)([C@@H](OC(=O)c4ccccc4)[C@H]21)C3(C)C` [Compound 2488]: less than 1 nM; `CCC(=O)O[C@H]1C(=O)[C@@]2(C)[C@H]([C@H](OC(=O)c3ccccc3)[C@]3(O)C[C@H](OC(=O)[C@H](O)[C@@H](NC(=O)OCC(C)C)c4cccs4)C(C)=C1C3(C)C)[C@]1(OC(C)=O)CO[C@@H]1C[C@@H]2O` [Compound 3163]: less than 1 nM.
With `CC(=O)O[C@@]12CO[C@@H]1C[C@H](O)[C@@]1(C)C(=O)[C@H](OC(=O)C3CC3)C3=C(C)[C@@H](OC(=O)[C@H](O)[C@@H](NC(=O)OC(C)C)c4ccco4)C[C@@](O)([C@@H](OC(=O)c4ccccc4)[C@H]21)C3(C)C` [Compound 3853], the IC50 was less than 1 nM.
Still for that read-out and setting: next, `CC(=O)O[C@@]12CO[C@@H]1C[C@H](O)[C@@]1(C)C(=O)[C@H](OC(=O)C=C(C)C)C3=C(C)[C@@H](OC(=O)[C@H](O)[C@@H](NC(=O)OC(C)(C)C)c4ccccc4)C[C@@](O)([C@@H](OC(=O)c4ccccc4)[C@H]21)C3(C)C` [Compound 2520]: less than 10 nM; `CC(=O)O[C@@]12CO[C@@H]1C[C@H](O)[C@@]1(C)C(=O)[C@H](OC(=O)C3CC3)C3=C(C)[C@@H](OC(=O)[C@H](O)[C@@H](NC(=O)c4ccccc4)c4ccccn4)C[C@@](O)([C@@H](OC(=O)c4ccccc4)[C@H]21)C3(C)C` [Compound 2844]: less than 10 nM.
Same read-out and setting: next, `CC(=O)O[C@@]12CO[C@@H]1C[C@H](O)[C@@]1(C)C(=O)[C@H](OC(=O)c3ccco3)C3=C(C)[C@@H](OC(=O)[C@H](O)[C@@H](NC(=O)OC(C)(C)C)c4cccnc4)C[C@@](O)([C@@H](OC(=O)c4ccccc4)[C@H]21)C3(C)C` [Compound 2124]: less than 10 nM; `CC(=O)O[C@@]12CO[C@@H]1C[C@H](O)[C@@]1(C)C(=O)[C@H](OC(=O)c3ccco3)C3=C(C)[C@@H](OC(=O)[C@H](O)[C@@H](NC(=O)OC(C)(C)C)C(C)C)C[C@@](O)([C@@H](OC(=O)c4ccccc4)[C@H]21)C3(C)C` [Compound 2181]: less than 10 nM; `CC(=O)OC12COC1CC(O)C1(C)C(=O)C(OC(=O)C(C)C)C3=C(C)C(OC(=O)C(O)C(NC(=O)OC(C)(C)C)C(C)C)CC(O)(C(OC(=O)c4ccccc4)C21)C3(C)C` (stereo not drawn) [Compound 2306]: less than 10 nM.
Consider `CC(=O)O[C@@]12CO[C@@H]1C[C@H](O)[C@@]1(C)C(=O)[C@H](OC(=O)C3CC3)C3=C(C)[C@@H](OC(=O)[C@H](O)[C@@H](NC(=O)c4cccs4)c4ccco4)C[C@@](O)([C@@H](OC(=O)c4ccccc4)[C@H]21)C3(C)C` [Compound 3663], for which the IC50 is less than 1 nM.
Still for that read-out and setting: then `CC(=O)O[C@@]12CO[C@@H]1C[C@H](O)[C@@]1(C)C(=O)[C@H](OC(=O)C3CC3)C3=C(C)[C@@H](OC(=O)[C@H](O)[C@@H](NC(=O)c4cccs4)c4cccs4)C[C@@](O)([C@@H](OC(=O)c4ccccc4)[C@H]21)C3(C)C` [Compound 3453], with less than 1 nM.
Still for that read-out and setting: then `CC(=O)O[C@@]12CO[C@@H]1C[C@H](O)[C@@]1(C)C(=O)[C@H](OC(=O)c3cccs3)C3=C(C)[C@@H](OC(=O)[C@H](O)[C@@H](NC(=O)OC(C)(C)C)c4ccoc4)C[C@@](O)([C@@H](OC(=O)c4ccccc4)[C@H]21)C3(C)C` [Compound 1923], with less than 1 nM; and `CC(=O)OC12COC1CC(O)C1(C)C(=O)C(OC(=O)C3CC3)C3=C(C)C(OC(=O)C(O)C(NC(=O)OCC(C)C)C4CC4)CC(O)(C(OC(=O)c4ccccc4)C21)C3(C)C` (stereo not drawn) [Compound 5232], with less than 10 nM; and `CC(=O)OC12COC1CC(O)C1(C)C(=O)C(OC(=O)C(C)C)C3=C(C)C(OC(=O)C(O)C(NC(=O)OC(C)(C)C)c4cccnc4)CC(O)(C(OC(=O)c4ccccc4)C21)C3(C)C` (stereo not drawn) [Compound 2242], with less than 10 nM.
Still for that read-out and setting: next, `CC(=O)O[C@@]12CO[C@@H]1C[C@H](O)[C@@]1(C)C(=O)[C@H](OC(=O)c3ccco3)C3=C(C)[C@@H](OC(=O)[C@H](O)[C@@H](NC(=O)OC(C)(C)C)c4ccc([N+](=O)[O-])cc4)C[C@@](O)([C@@H](OC(=O)c4ccccc4)[C@H]21)C3(C)C` [Compound 2202]: less than 1 nM; `CCCC(=O)O[C@H]1C(=O)[C@@]2(C)[C@H]([C@H](OC(=O)c3ccccc3)[C@]3(O)C[C@H](OC(=O)[C@H](O)[C@@H](NC(=O)OCC(C)C)C4CC4)C(C)=C1C3(C)C)[C@]1(OC(C)=O)CO[C@@H]1C[C@@H]2O` [Compound 4808]: less than 10 nM; `CC(=O)O[C@@]12CO[C@@H]1C[C@H](O)[C@@]1(C)C(=O)[C@H](OC(=O)C3CC3)C3=C(C)[C@@H](OC(=O)[C@H](O)[C@@H](NC(=O)OCC(C)C)c4ccoc4)C[C@@](O)([C@@H](OC(=O)c4ccccc4)[C@H]21)C3(C)C` [Compound 4665]: less than 10 nM.
On to `CC(=O)O[C@@]12CO[C@@H]1C[C@H](O)[C@@]1(C)C(=O)[C@H](OC(=O)C3CC3)C3=C(C)[C@@H](OC(=O)[C@H](O)[C@@H](NC(=O)OC(C)(C)C)c4ccncc4)C[C@@](O)([C@@H](OC(=O)c4ccccc4)[C@H]21)C3(C)C` [Compound 2813], for which the IC50 is less than 1 nM.
As to `CC(=O)O[C@@]12CO[C@@H]1C[C@H](O)[C@@]1(C)C(=O)[C@H](OC(=O)c3ccco3)C3=C(C)[C@@H](OC(=O)[C@H](O)[C@@H](NC(=O)OC(C)(C)C)c4ccsc4)C[C@@](O)([C@@H](OC(=O)c4ccccc4)[C@H]21)C3(C)C` [Compound 2173], the IC50 was less than 1 nM.
Turning to `C/C=C/C(=O)N[C@@H](c1ccoc1)[C@@H](O)C(=O)O[C@H]1C[C@@]2(O)[C@@H](OC(=O)c3ccccc3)[C@@H]3[C@]4(OC(C)=O)CO[C@@H]4C[C@H](O)[C@@]3(C)C(=O)[C@H](OC(=O)CC)C(=C1C)C2(C)C` [Compound 4888], the IC50 is less than 1 nM.

Source of the values: patent EP1285920A1, “C10 Ester sustituted taxanes as antitumor agents” (Florida State University Research Foundation, Inc., priority 2001, dated 2003).
